# Experimental data: PMC6688371, “Effect of the inhaled PDE4 inhibitor CHF6001 on biomarkers of inflammation in COPD” (Respiratory Research, 2019)
# What was measured:
# [1] = Stability of CHF6001 in human sputum samples (bioanalytical validation); format: in vitro ADME
# Description: Effect of CHF6001 on inflammatory biomarkers – Additional file 1
# Approximately 80 to 100 cells were to be counted per square , with the number of live leukocytes, dead leukocytes and squamous cells counted.
# To determine differential cell counts, the sputum cell suspension was adjusted with Dulbecco's Phosphate -Buffered Saline to give 0.5x10^6 cells/mL. A total of 75 µL was used to prepare a cytoslide, which was then centrifuged at 450 rpm for 6 min and allowed to air dry for a minimum of 30 min before being fixed with methanol for 10 min. Four slides were prepared for each sample.
# Only one of the sputum samples induced at 2 h post-dose on Days 20, 26 or 32 was used to evaluate CHF6001 concentration, with the evaluation performed only if a minimum of 300 mg of residual sputum remained. Approximately 30 mg of sputum plug was transferred to a polypropylene cryotube, and was shipped in an upright position at –80C to a central laboratory for analysis. The concentration of CHF6001 was evaluated using a LC-MS/MS method following solid phase extraction. Validation procedures were the same as those listed above for biomarkers. […]
# over the calibration range of 30 to 20,000 ng/mL. The precision and accuracy of the method […]
# 30 ng/mL and within 15% at all other concentrations. No significant matrix effects were […]
# temperature (nominally +22C), after storage for 93 days in a freezer set at –80C and after four freeze-thaw cycles at nominally –80C / +22C. The method was considered to be suitable for measuring concentrations of CHF6001 in human sputum samples from […]
# (§1) Analysis of biomarkers and CHF6001 concentration in blood
# The levels of inflammatory biomarkers were evaluated from blood collected at 2 h post-dose
# [2] = system: markers of inflammation in blood; assay: Markers of inflammation in blood (serum/plasma); format: in vivo, human; details: Day 32, geometric mean (%CV)
# Description: (§2) Induced sputum was collected pre-dose on Day 1 of each treatment period (for the first treatment period, the sample could be collected up to 10 days prior to Day 1), and 2 h post-dose on Days 20, 26 and 32 (see the Additional file 1 for further detail on sputum and blood analysis methods). Blood samples were taken pre-dose on Day 1, and pre-dose and at 30 min, and 1, 1.5, 2, 3, 4, 6, 8 and 12 h post-dose on Day 32. Other pre-dose assessments on Days 1 and 32 were spirometry (forced expiratory volume in 1 s [FEV1] and forced vital capacity [FVC]), forced oscillometry, and COPD Assessment Test (CAT), with Baseline Dyspnea Index recorded on Day 1 and Transition Dyspnea Index (TDI) on Day 32. Central and peripheral airways mechanics were assessed using forced oscillometry, with the following values determined: inspiratory and expiratory resistance (at 5 and 19 Hz), inspiratory and expiratory reactance, tidal expiratory flow limitation and the percentage of flow limited breaths.
# A patient had to have a minimum of one acceptable sputum sample on Day 20, 26 or 32 to be included in the sputum biomarker evaluation for that treatment period, with the available cell count and biomarker data averaged for each patient. The mean change from baseline (pre-dose on Day 1 of each treatment period) was then compared between treatments using an analysis of covariance (ANCOVA) that included treatment, patient and period as fixed effects, and baseline values as covariate. The mean change from baseline to Day 32 for biomarkers in blood were analysed using the same model as for sputum data. All data were log-transformed before analysis, and the results are presented as ratio of geometric means.
# Effect of CHF6001 on inflammatory biomarkers – Additional file 1 […]
# as §1
# The levels of inflammatory biomarkers were evaluated from blood collected at 2 h post-dose […]
# • Ex-vivo lipopolysaccharide (LPS) stimulated TNFα: 1.5 mL of blood collected into sodium heparin tubes was stimulated with 30 µL of LPS 5 µg/mL, incubated at 37C for 23 h, centrifuged at 2000 g for 10 min at 4C and plasma transferred to the central laboratory at –60 to –90C for analysis.
# • Fibrinogen and MMP-3 and -9: Blood was collected into lithium heparin tubes, centrifuged at 2500 g for 15 min at 4C, and plasma transferred to the central […]
# • IL-6, -16, and -18, CXCL8, TNFα, MCP-1, MIP 1β, club cell secretory protein 16 (CC16), C-reactive protein (CRP) and surfactant protein D (SP-D): Blood was collected into serum separator tubes and kept at room temperature for 30 –60 minutes to allow clotting. Samples were then centrifuged at 2000 g for 5 min at +4C and serum transferred to the central laboratory at –60 to –90C for analysis.
# Levels of biomarkers were assessed as follows:
# • Fibrinogen: K-Assay Fibrinogen kit, automated on the Beckman AU640 .
# • IL-18, and MMP-3 and -9: PheraSTAR ELISA.
# • IL-6, CXCL8, TNFα, MCP-1 and MIP-1β: Meso Scale Diagnostics v -PLEX Plus kit .
# • CC16: Biovendor Elisa Kit, Oxford Biosystems.
# • CRP: Randox Reagents, automated on the Beckman AU640 .
# • IL-16: Meso Scale Diagnostics Sector Imager 6000.
# • Serum SP-D: Sandwich Immunoassay, using PheraSTAR Plate Reader .
# Validation procedures again followed those outlined for the analysis of biomarkers above. All […]
# concentrations of biomarkers in human serum or plasma from regulatory studies.
# Blood for the pharmacokinetic analysis was collected pre-dose and at 30 min, and 1, 1.5, 2, 3, 4, 6, 8 and 12 h post-dose on Day 32 of each treatment period. Samples were centrifuged at 2000 g for 15 min at 4C, with the resulting plasma shipped to the central laboratory at –60
# patients with COPD = assay: Spirometry and symptoms (FEV1, FVC, CAT, TDI); format: in vivo, human; details: for TDI, adjusted mean difference vs placebo (95% CI): Day 32; for CAT, adjusted mean difference vs placebo (95% CI) / Pre-dose FEV1, adjusted mean difference vs placebo (95% CI) / Pre-dose FVC, adjusted mean difference vs placebo (95% CI): change from baseline to Day 32
# Description: as §2
# The mean changes from baseline to Day 32 for lung function, CAT and TDI were analysed using similar methodology to sputum biomarkers, but were not log-transformed. […] The sputum concentration of CHF6001 was also evaluated at 2 h post-dose, using the mean of all values measured on Days 20, 26 and 32. Pharmacokinetic variables were summarised using geometric means and coefficients of variation, except for Tmax,ss, which is presented as median (range).
structure (smiles),measurement,setting,value
CS(=O)(=O)Nc1ccc(C(=O)O[C@@H](Cc2c(Cl)c[n+]([O-])cc2Cl)c2ccc(OC(F)F)c(OCC3CC3)c2)cc1OCC1CC1 [CHF6001],Storage time found stable in sputum,[1]; freezer set at –80C,93 days
same,Freeze-thaw cycles found stable in sputum,[1]; nominally –80C / +22C,four
same,Time found stable in sputum,[1]; sample processing temperature (nominally +22C),up to 24 h
same,"C-X-C motif chemokine ligand 8 in blood, post-baseline",[2]; 800 µg BID,13.565 (36.9)
same,"C-reactive protein in blood, post-baseline",[2]; 800 µg BID,3.4462 (167.3) mg/L
same,"Club cell secretory protein 16 in blood, post-baseline",[2]; 800 µg BID,4.6249 (67.5) ng/mL
same,"Fibrinogen in blood, post-baseline",[2]; 800 µg BID,327.0 (47.5) mg/dL
same,"Interleukin 6 in blood, post-baseline",[2]; 800 µg BID,1.8740 (63.9) pg/mL
same,"Interleukin 16 in blood, post-baseline",[2]; 800 µg BID,183.95 (33.6) pg/mL
same,"Interleukin 18 in blood, post-baseline",[2]; 800 µg BID,236.46 (43.0) pg/mL
same,"Macrophage inflammatory protein 1β in blood, post-baseline",[2]; 800 µg BID,107.36 (35.2) pg/mL
same,"Matrix metalloproteinase 3 in blood, post-baseline",[2]; 800 µg BID,19.356 (66.9) ng/mL
same,"Matrix metalloproteinase 9 in blood, post-baseline",[2]; 800 µg BID,61.69 (88.4) ng/mL
same,"Monocyte chemotactic protein 1 in blood, post-baseline",[2]; 800 µg BID,308.2 (33.3) pg/mL
same,"Serum surfactant protein D, post-baseline",[2]; 800 µg BID,168.55 (67.6) ng/mL
same,"Tumour necrosis factor α in serum, post-baseline",[2]; 800 µg BID,1.9453 (31.8) pg/mL
same,"C-X-C motif chemokine ligand 8 in blood, post-baseline",[2]; 1600 µg BID,13.014 (42.2)
same,"C-reactive protein in blood, post-baseline",[2]; 1600 µg BID,3.7389 (135.5) mg/L
same,"Club cell secretory protein 16 in blood, post-baseline",[2]; 1600 µg BID,4.5701 (75.3) ng/mL
same,"Fibrinogen in blood, post-baseline",[2]; 1600 µg BID,367.8 (54.2) mg/dL
same,"Interleukin 6 in blood, post-baseline",[2]; 1600 µg BID,1.9386 (88.8) pg/mL
same,"Interleukin 16 in blood, post-baseline",[2]; 1600 µg BID,178.08 (30.4) pg/mL
same,"Interleukin 18 in blood, post-baseline",[2]; 1600 µg BID,252.43 (40.2) pg/mL
same,"Macrophage inflammatory protein 1β in blood, post-baseline",[2]; 1600 µg BID,113.88 (44.2) pg/mL
same,"Matrix metalloproteinase 3 in blood, post-baseline",[2]; 1600 µg BID,19.565 (53.9) ng/mL
same,"Matrix metalloproteinase 9 in blood, post-baseline",[2]; 1600 µg BID,52.19 (89.7) ng/mL
same,"Monocyte chemotactic protein 1 in blood, post-baseline",[2]; 1600 µg BID,323.6 (31.8) pg/mL
same,"Serum surfactant protein D, post-baseline",[2]; 1600 µg BID,167.66 (66.1) ng/mL
same,"Tumour necrosis factor α in serum, post-baseline",[2]; 1600 µg BID,1.9302 (35.7) pg/mL
same,"TDI, adjusted mean difference vs placebo (95% CI)",patients with COPD; 800 µg BID,0.3 (–0.1 to 0.8)
same,"CAT, adjusted mean difference vs placebo (95% CI)",patients with COPD; 800 µg BID,–0.3 (–1.4 to 0.8)
same,"Pre-dose FEV1, adjusted mean difference vs placebo (95% CI)",patients with COPD; 800 µg BID,13 (–26 to 52) mL
same,"Pre-dose FVC, adjusted mean difference vs placebo (95% CI)",patients with COPD; 800 µg BID,25 (–58 to 109) mL
same,"TDI, adjusted mean difference vs placebo (95% CI)",patients with COPD; 1600 µg BID,–0.1 (–0.6 to 0.4)
same,"CAT, adjusted mean difference vs placebo (95% CI)",patients with COPD; 1600 µg BID,–0.3 (–1.3 to 0.8)
same,"Pre-dose FEV1, adjusted mean difference vs placebo (95% CI)",patients with COPD; 1600 µg BID,–35 (–74 to 4) mL
same,"Pre-dose FVC, adjusted mean difference vs placebo (95% CI)",patients with COPD; 1600 µg BID,–26 (–109 to 58) mL
same,Lung function (FEV1 and FVC) or symptoms vs placebo,patients with COPD; either dose (800 or 1600 μg BID),Neither CHF6001 dose differed from placebo
